ChEMBL document CHEMBL1150124, “Steroidal and pregnane glycosides from the rhizomes of Tacca chantrieri” (J Nat Prod, 2002)
Active and inactive are the calls of the source. The calls are words filed in the database; no cut-off is given here.

System: HL-60
Assay: Cytotoxicity against human HL60 cells at 10 ug/mL
Assay type: functional, cell-based

In the case of `CC(=O)OC[C@H]1O[C@@H](O[C@H]2CC[C@@]3(C)C(=CC[C@H]4[C@@H]5C[C@@H]6OC(CC[C@H](C)CO[C@@H]7O[C@H](CO)[C@@H](O)[C@H](O)[C@H]7O)=C(C)[C@@H]6[C@@]5(C)CC[C@@H]43)C2)[C@H](O[C@@H]2O[C@@H](C)[C@H](O)[C@@H](O)[C@H]2O)[C@@H](O[C@@H]2O[C@@H](C)[C@H](O[C@@H]3O[C@H](CO)[C@@H](O)[C@H](O)[C@H]3O)[C@@H](O)[C@H]2O)[C@@H]1O`, the Activity is reported as “inactive”.

With `CC(=O)C1=CC[C@H]2[C@@H]3CC=C4C[C@@H](O[C@@H]5O[C@H](CO)[C@@H](O)[C@H](O[C@@H]6O[C@@H](C)[C@H](O[C@@H]7O[C@H](CO)[C@@H](O)[C@H](O)[C@H]7O)[C@@H](O)[C@H]6O)[C@H]5O[C@@H]5O[C@@H](C)[C@H](O)[C@@H](O)[C@H]5O)CC[C@]4(C)[C@H]3CC[C@]12C` the Activity was “inactive”.

For `CO[C@]1(CC[C@H](C)CO[C@@H]2O[C@H](CO)[C@@H](O)[C@H](O)[C@H]2O)O[C@H]2C[C@H]3[C@@H]4CC=C5C[C@@H](O[C@@H]6O[C@H](COC(C)=O)[C@@H](O)[C@H](O[C@@H]7O[C@@H](C)[C@H](O[C@@H]8O[C@H](CO)[C@@H](O)[C@H](O)[C@H]8O)[C@@H](O)[C@H]7O)[C@H]6O[C@@H]6O[C@@H](C)[C@H](O)[C@@H](O)[C@H]6O)CC[C@]5(C)[C@H]4CC[C@]3(C)[C@H]2[C@@H]1C`, the Activity was “inactive”.

For `CC1=C(CC[C@H](C)CO[C@@H]2O[C@H](CO)[C@@H](O)[C@H](O)[C@H]2O)O[C@H]2C[C@H]3[C@@H]4CC=C5C[C@@H](O[C@@H]6O[C@H](CO)[C@@H](O)[C@H](O[C@@H]7O[C@@H](C)[C@H](O[C@@H]8O[C@H](CO)[C@@H](O)[C@H](O)[C@H]8O)[C@@H](O)[C@H]7O)[C@H]6O[C@@H]6O[C@@H](C)[C@H](O)[C@@H](O)[C@H]6O)CC[C@]5(C)[C@H]4CC[C@]3(C)[C@@H]12`, the Activity was “inactive”.

With `CO[C@]1(CC[C@H](C)CO[C@@H]2O[C@H](CO)[C@@H](O)[C@H](O)[C@H]2O)O[C@H]2C[C@H]3[C@@H]4CC=C5C[C@@H](O[C@@H]6O[C@H](CO)[C@@H](O)[C@H](O[C@@H]7O[C@@H](C)[C@H](O[C@@H]8O[C@H](CO)[C@@H](O)[C@H](O)[C@H]8O)[C@@H](O)[C@H]7O)[C@H]6O[C@@H]6O[C@@H](C)[C@H](O)[C@@H](O)[C@H]6O)CC[C@]5(C)[C@H]4CC[C@]3(C)[C@H]2[C@@H]1C` the Activity was “inactive”.

In the case of `CC(=O)[C@H]1[C@@H](OC(=O)CC[C@H](C)CO[C@@H]2O[C@H](CO)[C@@H](O)[C@H](O)[C@H]2O)C[C@H]2[C@@H]3CC=C4C[C@@H](O[C@@H]5O[C@H](CO)[C@@H](O)[C@H](O[C@@H]6O[C@@H](C)[C@H](O[C@@H]7O[C@H](CO)[C@@H](O)[C@H](O)[C@H]7O)[C@@H](O)[C@H]6O)[C@H]5O[C@@H]5O[C@@H](C)[C@H](O)[C@@H](O)[C@H]5O)CC[C@]4(C)[C@H]3CC[C@@]21C`, the Activity is reported as “inactive”.

`CO[C@]1(CC[C@H](C)CO[C@@H]2O[C@H](CO[C@@H]3O[C@H](CO)[C@@H](O)[C@H](O)[C@H]3O)[C@@H](O)[C@H](O)[C@H]2O)O[C@H]2C[C@H]3[C@@H]4CC=C5C[C@@H](O[C@@H]6O[C@H](CO)[C@@H](O)[C@H](O[C@@H]7O[C@@H](C)[C@H](O[C@@H]8O[C@H](CO)[C@@H](O)[C@H](O)[C@H]8O)[C@@H](O)[C@H]7O)[C@H]6O[C@@H]6O[C@@H](C)[C@H](O)[C@@H](O)[C@H]6O)CC[C@]5(C)[C@H]4CC[C@]3(C)[C@H]2[C@@H]1C` was tested, and the Activity was “inactive”.
